Measurements from patent publication US5597915A, “Benzodiazepine derivatives, compositions containing them and their use in therapy” (Merck Sharp & Dohme Ltd., priority 1992, dated 1997).

Key:
CCK Receptor (Brain) = target: T1, CCK Receptor (Brain) (Cavia porcellus, UniProt H0VZC5); assay: CCK Receptor Binding (Brain): inhibition of 125I-CCK-8 binding to guinea pig cortex membranes; parameters: species or system guinea pig (male Hartley); details: 50 pM 125I-CCK-8, 25° C., 2 hours, pH 6.5
T1 construct: the cortex was removed and homogenized in 25 mL ice-cold 0.32 M sucrose; from tissue; host or cells: guinea pig cerebral cortex P2 membranes
T1 sequence (H0VZC5 1-426): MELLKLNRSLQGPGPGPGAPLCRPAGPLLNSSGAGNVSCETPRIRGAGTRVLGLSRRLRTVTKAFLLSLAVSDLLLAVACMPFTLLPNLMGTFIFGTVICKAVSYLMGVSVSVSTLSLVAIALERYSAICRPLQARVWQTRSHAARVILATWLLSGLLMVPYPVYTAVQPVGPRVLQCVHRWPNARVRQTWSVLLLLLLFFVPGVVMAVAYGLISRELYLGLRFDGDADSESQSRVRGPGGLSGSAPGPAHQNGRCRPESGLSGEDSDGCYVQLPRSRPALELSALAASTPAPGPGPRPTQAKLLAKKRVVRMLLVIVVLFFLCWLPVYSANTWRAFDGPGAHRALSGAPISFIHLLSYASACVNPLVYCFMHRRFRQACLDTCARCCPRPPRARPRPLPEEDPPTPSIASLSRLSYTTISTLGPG
Protocol: 2. CCK Receptor Binding (Brain)
CCK-8 sulphated was radiolabelled and the binding was performed according to the description for the pancreas method with minor modifications.
Male Hartley guinea pigs (300-500 g) were sacrificed by decapitation and the cortex was removed and homogenized in 25 mL ice-cold 0.32 M sucrose. The homogenates were centrifuged at 1000 g for 10 minutes and the resulting supernatant was recentrifuged at 20,000 g for 20 minutes. The P2 pellet was resuspended in binding assay buffer (20 mM HEPES, 5 mM MgCl2, 0.25 mg/ml bacitracin, 1 mM EGTA pH 6.5 at 25° C.), using a Teflon (trademark) homogenizer (5 strokes at 500 rpm) to give a final concentration of 10 mg original wet weight /1.2 ml buffer. For the binding assay, 50 μl of buffer (for total binding) or unlabelled CCK-8 sulphated to give a final concentration of 1 μM (for nonspecific binding) or the compounds of Formula I (for determination of inhibition of ^125 I-CCK-8 binding) and 50 μl of 500 pM ^125 I-CCK-8 (i.e. final concentration of 50 pM) were added to 400 μl of the membrane suspensions in microfuge tubes. All assays were run in duplicate. […] The radioactivity on the filters was counted with a LKB gamma counter. […]

CCK Receptor (Pancreas) = target: T2, CCK Receptor (Pancreas) (Rattus norvegicus, UniProt P30551); assay: CCK Receptor Binding (Pancreas): inhibition of 125I-CCK-8 binding to rat pancreas membranes; parameters: species or system rat (male Sprague-Dawley); details: 50 pM 125I-CCK-8, 25° C., 2 hours, pH 6.5
T2 construct: The whole pancreas was dissected free of fat tissue and was homogenized; from tissue; host or cells: rat whole pancreas homogenate/membranes
T2 sequence (P30551 1-444): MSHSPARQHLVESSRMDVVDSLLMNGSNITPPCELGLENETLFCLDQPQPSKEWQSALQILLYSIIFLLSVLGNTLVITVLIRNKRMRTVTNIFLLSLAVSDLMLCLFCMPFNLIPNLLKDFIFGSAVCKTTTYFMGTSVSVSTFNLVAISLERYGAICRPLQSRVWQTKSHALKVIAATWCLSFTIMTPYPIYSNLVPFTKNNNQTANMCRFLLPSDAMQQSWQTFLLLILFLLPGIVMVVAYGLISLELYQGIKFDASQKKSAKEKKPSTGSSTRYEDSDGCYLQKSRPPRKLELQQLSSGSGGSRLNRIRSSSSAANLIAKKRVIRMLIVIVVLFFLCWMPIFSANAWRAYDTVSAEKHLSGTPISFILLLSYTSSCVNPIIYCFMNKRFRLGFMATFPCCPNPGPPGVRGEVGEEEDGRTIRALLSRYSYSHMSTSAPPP
Protocol: 1. CCK Receptor Binding (Pancreas)
CCK-8 sulphated was radiolabelled with ^125 I-Bolton Hunter reagent (2000 Ci/mmole). Receptor binding was performed according to Chang and Lotti (Proc. Natl. Acad. Sci. 83, 4923-4926, 1986) with minor modifications.
Male Sprague-Dawley rats (150-200 g) were sacrificed by decapitation. The whole pancreas was dissected free of fat tissue and was homogenized in 25 volumes of ice-cold 10 mM N-2-hydroxyethyl-piperazine-N'-2-ethane sulphonic acid (HEPES) buffer with 0.1% soya bean trypsin inhibitor (pH 7.4 at 25° C.) with a Kinematica Polytron. The homogenates were centrifuged at 47,800 g for 10 min. Pellets were resuspended in 10 volumes of binding assay buffer (20mM (HEPES)), 1 mM ethylene glycol-bis-(β-aminoethylether-N,N'-tetraacetic acid) (EGTA), 5 mM MgCl2, 150 mM NaCl, bacitracin 0.25 mg/ml, soya bean trypsin inhibitor 0.1 mg/ml, and bovine serum albumin 2 mg/ml pH 6.5 at 25° C.) using a Teflon (trademark) homogenizer, 15 strokes at 500 rpm. The homogenate was further diluted in binding assay buffer to give a final concentration of 0.5 mg original wet weight/1 ml buffer. […] The radioactivity on the filters was counted with a LKB gamma counter. […]

IC50 (CCK Receptor (Brain)) [nM]	IC50 (CCK Receptor (Pancreas)) [nM]	Compound
5.98	110	CN1C(=O)C(NC(=O)Nc2cccc(-c3noc(=O)[nH]3)c2)N=C(C2CCC2)c2ccccc21 (racemic) [Example 2, N-[3(R,S)-5-Cyclobutyl-2,3-dihydro-1-methyl-2-oxo-1H-1,4-benzodiazepin-3-yl]N'-[3-(5-oxo-4H-1,2,4-oxadiazolin-3-yl)phenyl]urea]
0.123	500	CN1C(=O)[C@H](NC(=O)Nc2cccc(-c3noc(=O)[nH]3)c2)N=C(C2CCCCC2)c2ccccc21 [Example 1, N-[3(R)-5-Cyclohexyl-2,3-dihydro-1-methyl-2-oxo-1H-1,4-benzodiazepin-3-yl]N'-[3-(5-oxo-4H-1,2,4-oxadiazolin,3-yl)phenyl]urea]
